Earlier results in patent US8841476B2, “Preparation of crystalline ezatiostat hydrochloride ansolvate form D” (Telik, Inc., priority 2010, dated 2014).
Where two headings read alike, the source gives them in different places.

What was measured:
[1] = tested on: HL-60 promyelocytic leukemia cells; settings: in vitro
[2] = ezatiostat hydrochloride in a liposomal injectable formulation, MDS trial, Raza et al. 2009
[3] = in vitro
[4] = tested on: hematopoietic progenitor cells in normal human peripheral blood
[5] = in vivo

Compound: CCOC(=O)[C@@H](N)CCC(=O)N[C@@H](CSCc1ccccc1)C(=O)N[C@@H](C(=O)OCC)c1ccccc1 [Ezatiostat]
- differentiation of HL-60 promyelocytic leukemia cells [1]: induce the differentiation
- hematologic improvement [2]: multi-lineage hematologic improvement
- tolerability [2]: well tolerated
- potentiation of the activity of cytotoxic agents [3]: potentiate the activity of cytotoxic agents
- white blood cell production (animals in which white blood cells were depleted by treatment with cisplatin or fluorouracil): increase white blood cell production
- white blood cell production (normal animals): increase white blood cell production
- colony formation of hematopoietic progenitor cells [4]: stimulate colony formation of all three lineages
- potentiation of the activity of cytotoxic agents [5]: potentiate the activity of cytotoxic agents
